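All cell lines were grown in 96-well plates and treated with compound for 48 hours. TGI marks complete inhibition of growth.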
How the values were obtained:
Assay in all cases: growth of human tumour cells (NCI), 48 h
786-0 renal = test system: 786-0 renal
A549 NSCLC = test system: A549 NSCLC
ACHN renal = test system: ACHN renal
BT-549 breast = test system: BT-549 breast
CAKI-1 renal = test system: CAKI-1 renal
CCRF-CEM leukemia = test system: CCRF-CEM leukemia
COLO 205 colon = test system: COLO 205 colon
DU-145 prostate = test system: DU-145 prostate
EKVX NSCLC = test system: EKVX NSCLC
HCC-2998 colon = test system: HCC-2998 colon
HCT-116 colon = test system: HCT-116 colon
HCT-15 colon = test system: HCT-15 colon
HL-60(TB) leukemia = test system: HL-60(TB) leukemia
HOP-62 NSCLC = test system: HOP-62 NSCLC
HOP-92 NSCLC = test system: HOP-92 NSCLC
HS 578T breast = test system: HS 578T breast
HT29 colon = test system: HT29 colon
IGROV1 ovarian = test system: IGROV1 ovarian
K-562 leukemia = test system: K-562 leukemia
KM12 colon = test system: KM12 colon
LOX IMVI melanoma = test system: LOX IMVI melanoma
M14 melanoma = test system: M14 melanoma
MALME-3M melanoma = test system: MALME-3M melanoma
MCF7 breast = test system: MCF7 breast
MDA-MB-231 breast = test system: MDA-MB-231 breast
MDA-MB-435 = test system: MDA-MB-435
MDA-N = test system: MDA-N
MOLT-4 leukemia = test system: MOLT-4 leukemia
NCI-H226 lung = test system: NCI-H226 lung
NCI-H23 lung = test system: NCI-H23 lung
NCI-H460 lung = test system: NCI-H460 lung
NCI-H522 lung = test system: NCI-H522 lung
NCI/ADR-RES ovarian = test system: NCI/ADR-RES ovarian
OVCAR-3 ovarian = test system: OVCAR-3 ovarian
OVCAR-4 ovarian = test system: OVCAR-4 ovarian
OVCAR-5 ovarian = test system: OVCAR-5 ovarian
OVCAR-8 ovarian = test system: OVCAR-8 ovarian
PC-3 prostate = test system: PC-3 prostate
RPMI-8226 leukemia = test system: RPMI-8226 leukemia
RXF 393 renal = test system: RXF 393 renal
SF-268 CNS = test system: SF-268 CNS
SF-295 CNS = test system: SF-295 CNS
SF-539 CNS = test system: SF-539 CNS
SK-MEL-2 melanoma = test system: SK-MEL-2 melanoma
SK-MEL-28 melanoma = test system: SK-MEL-28 melanoma
SK-MEL-5 melanoma = test system: SK-MEL-5 melanoma
SK-OV-3 ovarian = test system: SK-OV-3 ovarian
SN12C renal = test system: SN12C renal
SNB-19 CNS = test system: SNB-19 CNS
SNB-75 CNS = test system: SNB-75 CNS
SR leukemia = test system: SR leukemia
SW-620 colon = test system: SW-620 colon
T-47D breast = test system: T-47D breast
TK-10 renal = test system: TK-10 renal
U251 CNS = test system: U251 CNS
UACC-257 melanoma = test system: UACC-257 melanoma
UACC-62 melanoma = test system: UACC-62 melanoma
A498 renal = test system: A498 renal
UO-31 renal = test system: UO-31 renal

Cc1nn(C(=O)c2ccc(Cl)cc2)c2c1C(c1ccc([N+](=O)[O-])cc1)SC(N)=N2 (centres undefined)
TGI (786-0 renal): > 10 µM
TGI (A549 NSCLC): > 10 µM
TGI (ACHN renal): > 10 µM
TGI (BT-549 breast): > 10 µM
TGI (CAKI-1 renal): > 10 µM
TGI (CCRF-CEM leukemia): > 10 µM
TGI (COLO 205 colon): > 10 µM
TGI (DU-145 prostate): > 10 µM
TGI (EKVX NSCLC): > 10 µM
TGI (HCC-2998 colon): > 10 µM
TGI (HCT-116 colon): > 10 µM
TGI (HCT-15 colon): > 10 µM
TGI (HL-60(TB) leukemia): > 10 µM
TGI (HOP-62 NSCLC): > 10 µM
TGI (HOP-92 NSCLC): > 10 µM
TGI (HS 578T breast): > 10 µM
TGI (HT29 colon): > 10 µM
TGI (IGROV1 ovarian): > 10 µM
TGI (K-562 leukemia): > 10 µM
TGI (KM12 colon): > 10 µM
TGI (LOX IMVI melanoma): > 10 µM
TGI (M14 melanoma): > 10 µM
TGI (MALME-3M melanoma): > 10 µM
TGI (MCF7 breast): > 10 µM
TGI (MDA-MB-231 breast): > 10 µM
TGI (MDA-MB-435): > 10 µM
TGI (MDA-N): > 10 µM
TGI (MOLT-4 leukemia): > 10 µM
TGI (NCI-H226 lung): > 10 µM
TGI (NCI-H23 lung): > 10 µM
TGI (NCI-H460 lung): > 10 µM
TGI (NCI-H522 lung): > 10 µM
TGI (NCI/ADR-RES ovarian): > 10 µM
TGI (OVCAR-3 ovarian): > 10 µM
TGI (OVCAR-4 ovarian): > 10 µM
TGI (OVCAR-5 ovarian): > 10 µM
TGI (OVCAR-8 ovarian): > 10 µM
TGI (PC-3 prostate): > 10 µM
TGI (RPMI-8226 leukemia): > 10 µM
TGI (RXF 393 renal): > 10 µM
TGI (SF-268 CNS): > 10 µM
TGI (SF-295 CNS): > 10 µM
TGI (SF-539 CNS): > 10 µM
TGI (SK-MEL-2 melanoma): > 10 µM
TGI (SK-MEL-28 melanoma): > 10 µM
TGI (SK-MEL-5 melanoma): > 10 µM
TGI (SK-OV-3 ovarian): > 10 µM
TGI (SN12C renal): > 10 µM
TGI (SNB-19 CNS): > 10 µM
TGI (SNB-75 CNS): > 10 µM
TGI (SR leukemia): > 10 µM
TGI (SW-620 colon): > 10 µM
TGI (T-47D breast): > 10 µM
TGI (TK-10 renal): > 10 µM
TGI (U251 CNS): > 10 µM
TGI (UACC-257 melanoma): > 10 µM
TGI (UACC-62 melanoma): > 10 µM

c1ccc(C2SCC3=Nc4ccccc4CN32)cc1 (centres undefined)
TGI (786-0 renal): > 100 µM
TGI (A498 renal): > 100 µM
TGI (A549 NSCLC): > 100 µM
TGI (BT-549 breast): > 100 µM
TGI (CAKI-1 renal): > 100 µM
TGI (CCRF-CEM leukemia): > 100 µM
TGI (COLO 205 colon): > 100 µM
TGI (DU-145 prostate): > 100 µM
TGI (HCC-2998 colon): > 100 µM
TGI (HCT-116 colon): 51.9 µM
TGI (HCT-15 colon): > 100 µM
TGI (HL-60(TB) leukemia): 89.9 µM
TGI (HOP-62 NSCLC): > 100 µM
TGI (HOP-92 NSCLC): > 100 µM
TGI (HS 578T breast): > 100 µM
TGI (HT29 colon): 50.7 µM
TGI (K-562 leukemia): > 100 µM
TGI (KM12 colon): > 100 µM
TGI (LOX IMVI melanoma): > 100 µM
TGI (M14 melanoma): > 100 µM
TGI (MCF7 breast): > 100 µM
TGI (MDA-MB-231 breast): > 100 µM
TGI (MDA-MB-435): > 100 µM
TGI (MDA-N): > 100 µM
TGI (MOLT-4 leukemia): > 100 µM
TGI (NCI-H23 lung): 62.3 µM
TGI (NCI-H460 lung): > 100 µM
TGI (NCI/ADR-RES ovarian): 48 µM
TGI (OVCAR-3 ovarian): 22.5 µM
TGI (OVCAR-4 ovarian): > 100 µM
TGI (OVCAR-5 ovarian): > 100 µM
TGI (OVCAR-8 ovarian): 57.3 µM
TGI (PC-3 prostate): > 100 µM
TGI (RPMI-8226 leukemia): > 100 µM
TGI (RXF 393 renal): 38.9 µM
TGI (SF-268 CNS): > 100 µM
TGI (SF-295 CNS): 70.8 µM
TGI (SF-539 CNS): 99.2 µM
TGI (SK-MEL-28 melanoma): > 100 µM
TGI (SK-MEL-5 melanoma): 32.2 µM
TGI (SK-OV-3 ovarian): > 100 µM
TGI (SN12C renal): > 100 µM
TGI (SNB-19 CNS): 57.8 µM
TGI (SNB-75 CNS): > 100 µM
TGI (SR leukemia): > 100 µM
TGI (SW-620 colon): > 100 µM
TGI (T-47D breast): > 100 µM
TGI (TK-10 renal): > 100 µM
TGI (U251 CNS): > 100 µM
TGI (UACC-257 melanoma): > 100 µM
TGI (UACC-62 melanoma): > 100 µM
TGI (UO-31 renal): > 100 µM

— PubChem BioAssay (NCI)
